{"source": "patent US20040180931A1", "about": "“Methods for treating Parkinson's disease” (priority 2000, published 2004)", "assay_type_in_all_cases": "in vivo, humans", "key": {"[1]": {"test_system": "patients with Parkinson's disease who were suffering from dementia", "test": "Mini-Mental State Examination (MMSE) in randomized, placebo-controlled, double-blind crossover study", "details": "5 mg or 10 mg donepezil, 10 weeks, start of treatment to week 10", "method": "(§1) A randomized, placebo-controlled, double-blind crossover study was conducted with fourteen patients with Parkinson's disease (13 men, 1 woman; mean age 78 (SD 3.6) years; mean duration of illness 11.4 (SD 4.9) years) who had developed cognitive impairments (mean Mini-Mental State Examination (MMSE) score 20.7 (SD 3.3)) 8.6 (SD 5.8) years after the onset of parkinsonism. […] At weeks 6 and 10 the patients completed a battery of cognitive tests. Cognitive impairments were measured using the MMSE and the CIBIC, a 7-point scale of the clinician's interview-based impression of change based upon information scored independently of the MMSE. Parkinsonism was assessed using the Unified Parkinson's Disease Rating Scale (UPDRS)."}, "[2]": {"test_system": "patients with Parkinson's disease and mild or moderate dementia", "test": "Overall efficacy / cognitive function in crossover study", "method": "as §1"}, "[3]": {"test_system": "patients with Parkinson's disease who were suffering from dementia", "test": "CIBIC+ (clinician's interview-based impression of change) in randomized, placebo-controlled, double-blind crossover study", "method": "as §1"}}, "data": [{"smiles": "COc1cc2c(cc1OC)C(=O)C(CC1CCN(Cc3ccccc3)CC1)C2", "note": "(stereo not drawn) [donepezil, 1-benzyl-4-((5,6-dimethoxy-1-indanon)-2-yl)methylpiperidine]", "values": [{"measurement": "mean MMSE score difference from baseline to week 10", "setting": "[1]", "value": 2.1, "unit": "points"}, {"measurement": "all efficacy measures versus placebo", "setting": "[2]; in vivo", "value": "numerical benefit"}, {"measurement": "cognitive function", "setting": "[2]; treated for 10 weeks", "value": "improvement"}, {"measurement": "mean CIBIC+ score at week 10", "setting": "[3]; 5 mg or 10 mg donepezil, week 10, 7-point scale", "value": 3.3}, {"measurement": "CIBIC+ response rate (improvement, CIBIC+ score of 3 or lower)", "setting": "[3]; 10 weeks of treatment", "value": 42, "unit": "%"}, {"measurement": "number of patients with improvement (CIBIC+ score of 3 or lower)", "setting": "[3]; 10 weeks of treatment", "value": 5, "unit": "patients"}]}]}
